Target: T1, APOL1 (Homo sapiens, UniProt O14791)
T1 sequence (O14791 1-398 S342G/I384M): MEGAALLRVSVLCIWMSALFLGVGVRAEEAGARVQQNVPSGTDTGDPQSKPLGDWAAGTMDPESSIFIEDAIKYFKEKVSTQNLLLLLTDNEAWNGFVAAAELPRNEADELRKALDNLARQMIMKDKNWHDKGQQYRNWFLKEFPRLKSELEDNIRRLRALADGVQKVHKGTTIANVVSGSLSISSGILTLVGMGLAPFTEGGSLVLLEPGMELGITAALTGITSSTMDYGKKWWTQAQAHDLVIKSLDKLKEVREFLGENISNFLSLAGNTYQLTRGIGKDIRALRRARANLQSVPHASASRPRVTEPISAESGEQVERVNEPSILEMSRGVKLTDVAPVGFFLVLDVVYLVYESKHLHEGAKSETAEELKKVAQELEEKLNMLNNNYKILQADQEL
Assay: MultiTox-Fluor Multiplex Cytotoxicity Assay in tet-inducible APOL1 T-REx-HEK293 cells
Assay type: cell-based
Conditions: tet-inducible transgenic APOL1 T-REx-HEK293 cells, 50 ng/mL tet, 24 hours; ratio of dead to live cells; APOL1 variant (G0/G1/G2) not stated; read-out: IP50 (nM) (i.e., IC50 for cell proliferation)
Experimental: The MultiTox-Fluor Multiplex Cytotoxicity Assay is a single-reagent-addition, homogeneous, fluorescence assay that measures the number of live and dead cells simultaneously in culture wells. The assay measures cell viability and cytotoxicity by detecting two distinct protease activities. The live-cell protease activity is restricted to intact viable cells and is measured using a fluorogenic, cell-permeant peptide glycyl-phenylalanylamino fluorocoumarin (GF-AFC) substrate. The substrate enters intact cells, where it is cleaved to generate a fluorescent signal proportional to the number of living cells. […] A second, cell-impermeant, fluorogenic peptide substrate (bis-AAF-R^110 Substrate) is used to measure dead-cell protease that has been released from cells that have lost membrane integrity. A ratio of dead to live cells is used to normalize data.
Briefly, the tet-inducible transgenic APOL1 T-REx-HEK293 cell lines were incubated with 50 ng/mL tet to induce APOL1 in the presence of 3-(2-(4-fluorophenyl)-1H-indol-3-yl)-N-((3S,4R)-4-hydroxy-2-oxopyrrolidin-3-yl)propenamide at 10.03, 3.24, 1.13, 0.356, 0.129, 0.042, 0.129, 0.0045, 0.0015, 0.0005 μM in duplicate for 24 hours in a humidified 37° C. incubator. The MultiTox reagent was added to each well and placed back in the incubator for an additional 30 minutes. The plate was read on the EnVision plate reader. A ratio of dead to live cells was used to normalize, and data was imported, analyzed, and fit using Genedata Screener (Basel, Switzerland) software. Data was normalized using percent of control, no tet (100% viability), and 50 ng/mL tet treated (0% viability),and fit using Smart Fit. The reagents, methods, and complete protocol for the MultiTox assay are described below.
Human embryonic kidney (HEK293) cell lines containing a tet-inducible expression system (T-REx™; Invitrogen, Carlsbad, CA) and Adeno-associated virus site 1 pAAVS1-Puro-APOL1 G0 or pAAVS1-Puro-APOL1 G1 or pAAVS1-Puro-APOL1 G2 Clones G0 DC2.13, G1 DC3.25, and G2 DC4.44 were grown in a T-225 flask at ˜90% confluency in cell growth media (DMEM, 10% Tet-free FBS, 2 mM L-glutamine, 100 Units/mL penicillin-streptomycin, 5 μg/mL blasticidin S HCl, 1 μg/mL puromycin dihydrochloride). Cells were washed with DPBS and then trypsinized to dissociate from the flask. Media was used to quench the trypsin, cells were then pelleted at 200 g and resuspended in fresh cell assay media (DMEM, 2% Tet-free FBS, 2 mM L-glutamine, 100 Units/mL penicillin-streptomycin). Cells were counted and diluted to 1.17×10^6 cells/mL. 20 μL of cells (23,400/well) were dispensed in every well of a 384-well Poly-D-Lysine coated plate using the Multidrop dispenser. The plates were then incubated at room temperature for one hour.
Tetracycline is needed to induce APOL1 expression. 1 mg/mL tet stock in water was diluted to 250 ng/mL (5×) in cell assay media. 60 μL of cell assay media (no tet control) was dispensed in columns 1 and 24, and 60 μL of 5× tet in 384-PP-round bottom plate was dispensed in columns 2 to 23 with the Multidrop dispenser.
Assay ready plates from the Global Compound Archive were ordered using template 384_APOL1Cell_DR10n2_50 μM_v3. Compounds were dispensed at 200 nL in DMSO. The final top concentration was 10 μM with a 10 point 3-fold dilution in duplicate in the MultiTox assay.
20 μL was transferred from the 5× tet plate to the ARP and mixed, then 5 μL of 5× tet and the compounds were transferred to the cell plate and mixed using the Bravo. The cell plate was placed in the humidified 37° C. 5% CO2 incubator for 24 hours.
The MultiTox-Fluor Multiplex Cytotoxicity Assay was performed in accordance with the manufacturer's protocol. After cells were incubated with tet and compound for 24 hours, 25 μL of 1× MultiTox reagent was added to each well using the Multidrop dispenser; the plates were placed on a plate shaker (600 rpm) for 2 minutes, then centrifuged briefly and placed back in the 37° C. incubator for 30 minutes. […]

Q: With Cc1cccc([C@@]2(O)CCN(Cc3ccc4c(c3)n(C)c(=O)n4C)[C@@H](C)C2)c1 [Compound 1, 5-[[(2S,4R)-4-hydroxy-2-methyl-4-(m-tolyl)-1-piperidyl]methyl]-1,3-dimethyl-benzimidazol-2-one] as the compound, how does the IC50 read?
A: 100 to 500 nM

Q: C[C@H]1C[C@@](O)(c2ccccc2)CCN1Cc1ccc2c(c1)n(C)c(=O)n2C [Compound 2] was tested. Which IC50 did it give?
A: 100 to 500 nM

Q: How did the IC50 turn out when C[C@@H]1C[C@](O)(c2ccccc2)CCN1Cc1ccc2c(c1)n(C)c(=O)n2C [Compound 3] was run?
A: 500 to 5000 nM

Q: For C[C@H]1C[C@@](O)(c2cccc(Cl)c2)CCN1Cc1ccc2c(c1)n(C)c(=O)n2C [Compound 4], which IC50 is on record?
A: ≤ 100 nM

Q: For C[C@H]1CC(O)(c2cccc(C(F)(F)F)c2)CCN1Cc1ccc2c(c1)n(C)c(=O)n2C (some centres unmarked) [Compound 5], which IC50 is on record?
A: 100 to 500 nM

Q: C[C@H]1C[C@](O)(c2ccc(Cl)cc2)CCN1Cc1ccc2c(c1)n(C)c(=O)n2C [Compound 6] was tested. Which IC50 did it give?
A: 500 to 5000 nM

Q: With C[C@H]1C[C@@](O)(c2ccc(Cl)cc2)CCN1Cc1ccc2c(c1)n(C)c(=O)n2C [Compound 7] as the compound, how does the IC50 read?
A: ≤ 100 nM

Q: C[C@H]1C[C@@](O)(c2cc(F)cc(Cl)c2)CCN1Cc1ccc2c(c1)n(C)c(=O)n2C [Compound 8] was tested. Which IC50 did it give?
A: ≤ 100 nM

Q: Which IC50 does the source give for C[C@H]1C[C@@](O)(c2ccc(Cl)c(Cl)c2)CCN1Cc1ccc2c(c1)n(C)c(=O)n2C [Compound 9] here?
A: ≤ 100 nM

Q: For C[C@@H]1C[C@](O)(c2ccc(Cl)cc2)CCN1Cc1ccc2c(c1)n(C)c(=O)n2C [Compound 10], which IC50 is on record?
A: ≤ 100 nM

Q: How did the IC50 turn out when C[C@@H]1C[C@](O)(c2cccc(F)c2)CCN1Cc1ccc2c(c1)n(C)c(=O)n2C [Compound 11] was run?
A: 100 to 500 nM

Q: For C[C@@H]1C[C@](O)(c2ccc(Cl)c(Cl)c2)CCN1Cc1ccc2c(c1)n(C)c(=O)n2C [Compound 12], which IC50 is on record?
A: 100 to 500 nM

Q: How did the IC50 turn out when C[C@H]1C[C@@](O)(c2cccc(C3CC3)c2)CCN1Cc1ccc2c(c1)n(C)c(=O)n2C [Compound 13] was run?
A: ≤ 100 nM

Q: Which IC50 does the source give for C[C@H]1C[C@@](O)(c2ccc3c(c2)CCO3)CCN1Cc1ccc2c(c1)n(C)c(=O)n2C [Compound 14] here?
A: 500 to 5000 nM

Q: How did the IC50 turn out when Cc1cc(C)cc([C@@]2(O)CCN(Cc3ccc4c(c3)n(C)c(=O)n4C)[C@@H](C)C2)c1 [Compound 15] was run?
A: ≤ 100 nM

Q: C[C@H]1C[C@@](O)(c2cccc(Cl)c2)CCN1Cc1cnn(C2CCS(=O)(=O)C2)c1 (stereo partly drawn) [Compound 16, (2S,4R)-4-(3-chlorophenyl)-1-[[1-(1,1-dioxothiolan-3-yl)pyrazol-4-yl]methyl]-2-methyl-piperidin-4-ol] was tested. Which IC50 did it give?
A: 100 to 500 nM

Q: CC(C)n1cc(CN2CC[C@](O)(c3cccc(Cl)c3)C[C@@H]2C)cn1 [Compound 17] was tested. Which IC50 did it give?
A: 500 to 5000 nM

Q: Which IC50 does the source give for Cc1ccc(CN2CC[C@](O)(c3cccc(Cl)c3)C[C@@H]2C)nn1 [Compound 18] here?
A: 500 to 5000 nM

Q: Cc1ncc(CN2CC[C@](O)(c3cccc(Cl)c3)C[C@@H]2C)cn1 [Compound 19] was tested. Which IC50 did it give?
A: 500 to 5000 nM

Q: Which IC50 does the source give for C[C@H]1C[C@@](O)(c2cccc(Cl)c2)CCN1Cc1cnn(CC(=O)N(C)C)c1 [Compound 20] here?
A: 100 to 500 nM

Q: C[C@H]1C[C@@](O)(c2cccc(Cl)c2)CCN1Cc1cnn(CCS(C)(=O)=O)c1 [Compound 21] was tested. Which IC50 did it give?
A: ≤ 100 nM

Q: For C[C@H]1C[C@@](O)(c2cccc(Cl)c2)CCN1Cc1ncco1 [Compound 22], which IC50 is on record?
A: 500 to 5000 nM

Q: How did the IC50 turn out when C[C@H]1C[C@@](O)(c2cccc(Cl)c2)CCN1Cc1cnn(-c2ccccn2)c1 [Compound 23] was run?
A: ≤ 100 nM

Q: C[C@H]1C[C@@](O)(c2cccc(Cl)c2)CCN1Cc1ccc(C(N)=O)cc1 [Compound 24] was tested. Which IC50 did it give?
A: 100 to 500 nM

Q: Cc1nc(CN2CC[C@](O)(c3cccc(Cl)c3)C[C@@H]2C)co1 [Compound 25] was tested. Which IC50 did it give?
A: 500 to 5000 nM

Q: Cc1nc(CN2CC[C@](O)(c3cccc(Cl)c3)C[C@@H]2C)c[nH]1 [Compound 26] was tested. Which IC50 did it give?
A: 500 to 5000 nM

Reference: patent US20250163021A1, “2-METHYL-4-PHENYLPIPERIDIN-4-OL DERIVATIVES AS INHIBITORS OF APOL1 AND METHODS OF USING SAME” (Vertex Pharmaceuticals Incorporated, priority 2022, published 2025)
